Source: patent US8058243B2, “Method for treating a brain cancer with ifenprodil” (HSC Research and Development Limited Partnership, priority 2006, dated 2011)
Counter-ions that a name gives are not always drawn. Like-named read-outs stand apart in the source and are kept apart here.

Tested on: murine neural precursor cells (neurosphere cultures)
Assay: HTS of LOPAC library against secondary neurosphere cultures, MTT proliferation assay at 3 μM, day 7 (z score, P value)
Format: cell-based, mouse
[1] = LOPAC library screen, 3 μM, MTT, neurosphere cultures
[2] = LOPAC screen, neurosphere MTT proliferation, 3 μM, day 7
[3] = yes/no: significantly inhibited neurosphere proliferation (P<0.01) in primary screen
[4] = LOPAC primary screen, neurosphere MTT proliferation, 3 μM, day 7
[5] = yes = significantly inhibited neurosphere proliferation (P<0.01) in the primary screen
[6] = primary LOPAC screen, 3 μM, MTT, neurosphere proliferation
[7] = yes/no: significantly inhibited neurosphere proliferation in the primary screen
[8] = yes/no: significantly inhibited neurosphere proliferation in primary screen
[9] = LOPAC library screen, 3 μM, MTT, secondary neurosphere cultures, day 7
[10] = yes/no: significantly inhibited neurosphere proliferation (P<0.01) in the primary screen
[11] = LOPAC library screen at 3 μM, secondary neurosphere cultures, MTT

CCn1cc(C(=O)O)c(=O)c2ccc(Cc3ccccc3)nc21 [Amfonelic acid]
Z Score [1]: 0.488
Z score [2]: 0.488
Activity [3]: no

COc1ccccc1N1CCN(CCN(C(=O)c2ccc(F)cc2)c2ccccn2)CC1.Cl.Cl [p-MPPF dihyrochloride]
Z score [4]: −2.160
Activity [5]: no

Br.Br.N=C(N)NCCSSCCNC(=N)N [Guanidinoethyl disulfide dihydrobromide]
Z Score (168 h, 3 µM): −4.521
Z score (168 h, 3 µM): −4.521
Activity [5]: yes

CC(C)(C=O)Cc1cc(C(C)(C)C)c(O)c(C(C)(C)C)c1 [CGP-13501]
Z Score: −1.096
Z score [6]: −1.096
Activity [7]: no

Cl.NCCNC(=O)c1ccc(Cl)cc1 [Ro 16-6491 hydrochloride]
Z Score: −2.181
Z score [4]: −2.181
Activity [8]: no

CC(C)NCC(O)COc1ccc(CCOCC2CC2)cc1 (stereo not shown) [Betaxolol hydrochloride]
Z Score [1]: 0.9838
Z score [2]: 0.984
Activity [3]: no

CN1CCN(CC(=O)N2c3ccccc3C(=O)Nc3cccnc32)CC1 [Pirenzepine dihydrochloride]
Z score (168 h, 3 µM): −0.545
Activity [8]: no

CN1CCCC1c1cccnc1.O=C(O)C(O)C(O)C(=O)O (single isomer, unassigned; (-)) [(−)-Nicotine hydrogen tartrate salt]
Activity: no
Z Score: 0.04498
Z score: 0.045

N#C/C(=C\c1ccc(O)c(O)c1)C(=O)c1ccc(O)c(O)c1 [Tyrphostin AG 538]
Z Score: −0.3955
Z score [6]: −0.395
Activity [7]: no

Nc1ncnc2c1nc(Sc1ccc(Cl)cc1)n2C1OC2COP(=O)(O)OC2C1O (stereo in doubt) [8-(4-Chlorophenylthio)-cAMP sodium]
Z Score [1]: 1.217
Z score [2]: 1.217
Activity [3]: no

COc1cc2nc(N3CCN(C(=O)c4ccco4)CC3)nc(N)c2cc1OC [Prazosin hydrochloride]
Activity: yes
Z Score [9]: −2.902
Z score [4]: −2.902

CCCOC(=O)c1c(-c2ccccc2)nc(CC)c(C(=O)SCC)c1CCC [MRS 1523]
Z Score: −0.001312
Z score [4]: −0.001
Activity [5]: no

Fc1ccc(C(OCCCc2c[nH]cn2)c2ccc(F)cc2)cc1 [3-(1H-Imidazol-4-yl)propyl di(p-fluorophenyl)methyl ether]
Z score [4]: −0.015
Activity [3]: no

Br.CO[C@H]1CC=C2CCN3CCC4=C(CC(=O)OC4)[C@]23C1 [Dihydro-beta-erythroidine hydrobromide]
Z Score: −1.788
Z score [4]: −1.788
Activity [3]: no

NC(CO)C(=O)NNCc1ccc(O)c(O)c1O (stereo not shown) [Benserazide hydrochloride]
Activity: no
Z Score [1]: 0.007467
Z score [2]: 0.007

Br.CCCN1CCC[C@@H]2c3ccc(O)cc3CC[C@@H]21 [cis-(B1)-8-OH-PBZI hydrobromide]
Z Score: −2.297

Cc1cn([C@H]2C=C[C@@H](CO)O2)c(=O)[nH]c1=O [2′,3′-didehydro-3′-deoxythymidine]
Z Score [9]: −1.878
Z score [2]: −1.878
Activity [3]: no

R(−)-Apocodeine hydrochloride
Z Score: −9.865
Z score [4]: −9.865
Activity [10]: yes

CC(C)C[C@H](NC(=O)[C@H](O)[C@H](N)Cc1ccccc1)C(=O)O [Epibestatin hydrochloride]
Z Score [11]: −0.7869
Z score [2]: −0.787
Activity [3]: no

CNCCNS(=O)(=O)c1cccc2cnccc12.Cl.Cl [H-8 dihydrochloride]
Z Score: −1.583
Z score [4]: −1.583
Activity [5]: no

N=C(N)SCCc1cnc[nH]1 [Imetit dihydrobromide]
Z Score: −0.2452
Z score: −0.245

CNC(=O)[C@H]1O[C@@H](n2cnc3c(NCc4ccc(N)cc4)ncnc32)[C@H](O)[C@@H]1O [AB-MECA]
Z Score: 0.7604
Z score [6]: 0.760
Activity [7]: no

O=C1NCN(c2ccccc2)C12CCN(CC1COc3ccccc3O1)CC2 (stereo not shown) [Spiroxatrine]
Z Score [1]: 0.1219
Z score [4]: 0.122
Activity [8]: no

N[C@H](C(=O)O)[C@H]1C[C@@H]1C(=O)O
Z Score: 1.233
Z score [2]: 1.233
Activity [3]: no

COC(=O)[C@H]1[C@H]2C[C@@H]3c4[nH]c5cc(OC)ccc5c4CCN3C[C@H]2C[C@@H](OC(=O)c2cc(OC)c(OC)c(OC)c2)[C@@H]1OC [Reserpine]
Z Score [11]: −1.023
Z score [4]: −1.023
Activity [5]: no

Cl.Cl.NCCc1c[nH]cn1 [Histamine dihydrochloride]
Activity: no
Z Score: −1.476
Z score: −1.476

CC(N)Cc1c[nH]c2ccc(O)cc12.O=C(O)/C=C\C(=O)O (stereo not drawn) [alpha-Methyl-5-hydroxytryptamine maleate]
Z Score: −0.7796
Z score [4]: −0.780
Activity [5]: no

Cl.O=C(CCCN1CCC2(CC1)C(=O)N(CCc1ccc(N=C=S)cc1)CN2c1ccccc1)c1ccc(F)cc1
Z Score [11]: −0.4152
Z score [4]: −0.415
Activity [5]: no

Cl.OC1CCCCC1N1CCC(c2ccccc2)CC1 (racemic) [(±)-Vesamicol hydrochloride]
Z score [6]: −1.967
Activity [7]: no

O.O.O=c1c(O)c(-c2ccc(O)c(O)c2)oc2cc(O)cc(O)c12 [Quercetin dihydrate]
Z Score: −2.302
Z score [4]: −2.302
Activity [8]: no

COc1cc(C(=O)OCCCN2CCCN(CCCOC(=O)c3cc(OC)c(OC)c(OC)c3)CC2)cc(OC)c1OC [Dilazep hydrochloride]
Z Score [1]: 0.2448
Z score [2]: 0.245
Activity [3]: no

Nc1nc2[nH]c(=O)cnc2c(=O)[nH]1 [Isoxanthopterin]
Z Score: 0.2339
Z score [4]: 0.234
Activity [3]: no

Nc1ccn([C@H]2CC[C@@H](CO)O2)c(=O)n1 [2′,3′-dideoxycytidine]
Z Score [9]: −1.367
Z score [4]: −1.367
Activity [10]: no

COc1cc(OC)c(C=C2C(O)=Nc3ccccc32)c(OC)c1 [IC 261]
Z Score: −1.63
Z score [4]: −1.630
Activity [8]: no

O=[N+]([O-])c1ccc(O[C@@H]2O[C@H](CO)[C@@H](O)[C@H](O)[C@H]2F)c([N+](=O)[O-])c1 [2,4-Dinitrophenyl 2-fluoro-2-deoxy-beta-D-glucopyranoside]
Z Score [1]: 0.772
Z score [2]: 0.772
Activity [3]: no

C[N+](C)(C)CCO.[Br-] [Choline bromide]
Activity: no
Z Score: −0.73
Z score: −0.730

Nc1ncnc2c1c(-c1ccc(Oc3ccccc3)cc1)cn2C1CCCC1
Z Score: −1.412
Z score [2]: −1.412
Activity [3]: no

O=C(O)c1cc[c]([Hg][Cl])cc1 [4-Chloromercuribenzoic acid]
Z Score: −0.03193
Z score [2]: −0.032
Activity [3]: no

Cc1ccc(S(=O)(=O)N[C@@H](CCCCN)C(=O)CCl)cc1.Cl
Activity: no
Z Score: 0.004812
Z score [4]: 0.005

O=C(C1CCCCC1)N1CC(=O)N2CCc3ccccc3C2C1 (stereo not shown) [Praziquantel]
Z Score [9]: −2.296
Z score [4]: −2.296
Activity [5]: no

OC(CN1CCN(c2cccc(Cl)c2)CC1)C(c1ccccc1)c1ccccc1 (stereo not shown) [BRL 15572]
Z Score: 0.3117
Z score [4]: 0.312
Activity [10]: no

N=C(N)NN [Aminoguanidine hydrochloride]
Z Score [1]: −0.000731
Z score [6]: −0.001
Activity [7]: no

Cn1cc(C(=O)OCC2CCN(CCNS(C)(=O)=O)CC2)c2ccccc21 [GR 113808]
Z Score: 0.992
Z score [4]: 0.992
Activity [10]: no

S=C(NC1CCCCC1)N1CCC(c2cnc[nH]2)CC1 [Thioperamide maleate]
Z Score [11]: −0.1537
Z score [6]: −0.154
Activity [7]: no

N[C@@H](COP(=O)(O)O)C(=O)O [O-Phospho-L-serine]
Z Score [1]: 0.5472
Z score [4]: 0.547
Activity [8]: no

Cc1ccc(O)c(N=Nc2ccccc2)n1 [SIB 1757]
Z Score: −1.752
Z score [4]: −1.752
Activity [8]: no

CCn1cc(C(=O)O)c(=O)c2cc3c(cc21)OCO3 [Oxolinic acid]
Z Score [1]: 0.9179
Z score [4]: 0.918
Activity [8]: no

C[Se]C[C@H](N)C(=O)O.Cl [Se-(methyl)selenocysteine hydrochloride]
Z Score: 0.4116
Z score [4]: 0.412
Activity [5]: no

COc1cc(/C=C(\C#N)C(=O)c2ccc(O)c(O)c2)cc(I)c1O [I-OMe-Tyrphostin AG 538]
Z Score [11]: −0.7369
Z score [6]: −0.737
Activity [7]: no

O=P1(N(CCCl)CCCl)NCCCO1 (stereo not shown) [Cyclophosphamide monohydrate]
Activity: no
Z Score: −0.9758
Z score: −0.976

O=C(O)CCCCC1CCSS1 (racemic) [(±)-alpha-Lipoic Acid]
Z score [4]: 0.342
Activity [8]: no

Cc1cccc(C(=O)NCN2CCN(c3ccccc3C#N)CC2)c1.O=C(O)/C=C\C(=O)O [PD 168,077 maleate]
Z Score: −1.516
Z score [4]: −1.516
Activity [8]: no

O=C1NC(=O)C(c2ccccc2)(c2ccccc2)N1 [Phenytoin sodium]
Z Score [11]: −0.2166
Z score [2]: −0.217
Activity [3]: no
